Test results published in patent US20260234140A1, “PYRIDOPYRIMIDINE DERIVATIVE AND USE THEREOF” (SUNSHINE LAKE PHARMA CO., LTD., priority 2023, published 2026).

Tested on: PD1/PD-L1 pathway
Test: PD1/PD-L1 Blockade Bioassay, inhibition of the PD1/PD-L1 pathway at the cellular level (luciferase reporter, PD-1 Jukat T cells co-cultured with PD-L1 aAPC/CHO-K1 cells)
Format: cell-based
Conditions: T-cell; for EC50: PD-1 Jukat T cells + PD-L1 aAPC/CHO-K1 cells, 6 h co-culture, ONE-Glo luciferase readout; for Emax: maximum % Activity relative to atezolizumab (set to 100%)
Protocol: Experiment 1: Detecting the Inhibitory Activity of Compounds on the PD1/PD-L1 Pathway at the Cellular Level Using the PD1/PD-L1 Blockade Bioassay Method
PD-1 Jukat T cells were revived and cultured with 1640 medium containing 100 μg/mL Hygromycin B, […] Puromycin, 10% FBS and 1% dual antibody; PD-L1 aAPC/CHO-K1 cells were revived and cultured with F12K medium containing 100 μg/mL Hygromycin B, 200 μg/mL G418, 10% FBS and 1% dual antibody.
The revived cells need to be passaged 2-3 times. When the cells enter the exponential growth phase with good growth status, the PD-L1 aAPC/CHO-K1 was digested with trypsin, and the cells were resuspended in F12K containing 5% FBS and adjusted to a density of 5×10^5 cells/mL. 20 μl/well were plated in a 384-well plate (10,000 cells/well) and incubated in an incubator overnight for 16-20 h.
a Preparation of compound stock solution: Dissolve the compound to be tested in DMSO to prepare a 20 mM stock solution.
b Compound gradient dilution: dilute the compound in 1640 medium containing 5% FBS without antibiotics or phenol red, and make 3-fold gradient dilutions to prepare 10 concentration gradients (2×).
c Adding drugs: Take out the cell culture plate, discard the supernatant, add 20 μl/well of the prepared compound, and incubate in the incubator for 1.5 h.
PD-1 Jukat T cells were collected, washed once with PBS, and resuspended in 1640 medium containing 5% FBS without antibiotics or phenol red. The density was adjusted to 1×10^6 cells/mL. 20 μl PD-1 Jukat T cells (20,000 cells/well) were added to each well and incubated in the incubator for 6 h.
ONE-Glo™ Luciferase Assay reagent was thawed to room temperature in advance and then added to a 384-well plate at 40 µl/well. Incubate in the dark for 15 minutes and read the […] signal on a plate reader.
[formula] • Among them, % Activity: % Activity • RLU: Resulting Luminescence unit • RLUvehicle: Average RLU value of negative control wells on each plate • RLUpositive: Average RLU value of positive control wells on each plate • Vehicle control: DMSO (0.1%) corresponding to the test value was used as negative control (its % Activity was 0%); • Positive control: The highest detection value at the atezolizumab administration concentration was used as the positive control (its % Activity was 100%). • (2) EC50 value calculation method: The EC50 value was obtained by the nonlinear fitting formula of Graph Pad Prism 8.0 software. The calculation formula is as follows:
Y=Bottom+(Top−Bottom)/(1+10^((Log EC50−X)×HillSlope)) • X: log of activator concentration (logarithm of compound concentration); Y: % Activity • (3) Emax definition: The maximum % Activity value corresponding to the maximum activation value of the compound relative to atezolizumab (the activation value is set to 100%).

SMILES	EC50	Emax
COc1nc(-c2cccc(-c3cccc(Nc4nc(C(F)F)nc5cc(CN6CC[C@@](C)(O)C6)cnc45)c3C)c2Cl)cnc1CN(C)[C@H]1CC[C@H](C(=O)O)CC1 [Example 29, (1r,4r)-4-(((5-(2-chloro-3′-((2-(difluoromethyl)-7-(((R)-3-hydroxy-3-methylpyrrolidin-1-yl)methyl)pyrido[3,2-d]pyrimidin-4-yl)amino)-2′-methyl-[1,1′-biphenyl]-3-yl)-3-methoxypyrazin-2-yl)methyl)(methyl)amino)cyclohexane-1-carboxylic acid]	42.9 nM	89%
[2H]C([2H])([2H])N(Cc1ncc(-c2cccc(-c3cccc(Nc4nc(C(F)F)nc5cc(CN6CC[C@@H](O)C6)cnc45)c3C)c2Cl)nc1OC)[C@H]1CC[C@H](C(=O)O)CC1 [Example 32, (1r,4r)-4-(((5-(2-chloro-3′-((2-(difluoromethyl)-7-(((R)-3-hydroxypyrrolidin-1-yl)methyl)pyrido[3,2-d]pyrimidin-4-yl)amino)-2′-methyl-[1,1′-biphenyl]-3-yl)-3-methoxypyrazin-2-yl)methyl)(methyl-d3)amino)cyclohexane-1-carboxylic acid]	76.3 nM	84.1%
COc1nc(-c2cccc(-c3cccc(Nc4nc(C(F)F)nc5cc(CN6CC[C@@H](O)C6)cnc45)c3C)c2Cl)cnc1CN[C@H]1CC[C@H](C(=O)O)CC1 [Example 33, (1r,4r)-4-(((5-(2-chloro-3′-((2-(difluoromethyl)-7-(((R)-3-hydroxypyrrolidin-1-yl)methyl)pyrido[3,2-d]pyrimidin-4-yl)amino)-2′-methyl-[1,1′-biphenyl]-3-yl)-3-methoxypyrazin-2-yl)methyl)amino)cyclohexane-1-carboxylic acid]	58.6 nM	95.3%
COc1nc(-c2cccc(-c3cccc(Nc4nc(C(F)F)nc5cc(CN6CC[C@@H](O)C6)cnc45)c3Cl)c2Cl)cnc1CN(C)[C@H]1CC[C@H](C(=O)O)CC1 [Example 35, (1r,4r)-4-(((5-(2,2′-dichloro-3′-((2-(difluoromethyl)-7-(((R)-3-hydroxypyrrolidin-1-yl)methyl)pyrido[3,2-d]pyrimidin-4-yl)amino)-[1,1′-biphenyl]-3-yl)-3-methoxypyrazin-2-yl)methyl)(methyl)amino)cyclohexane-1-carboxylic acid]	46.1 nM	102%
O=C(O)C1CCN(Cc2ccnc(Nc3cccc(-c4cccc(Nc5nc(C(F)F)nc6cc(CN7CC[C@@H](O)C7)cnc56)c4Cl)c3Cl)c2F)CC1 [Example 36, (R)-1-((2-((2,2′-dichloro-3′-((2-(difluoromethyl)-7-((3-hydroxypyrrolidin-1-yl)methyl)pyrido[3,2-d]pyrimidin-4-yl)amino)-[1,1′-biphenyl]-3-yl)amino)-3-fluoropyridin-4-yl)methyl)piperidine-4-carboxylic acid]	55.5 nM	85%
COc1nc(-c2cccc(-c3cccc(Nc4nc(C(F)F)nc5cc(CN6CCC[C@H]6C)cnc45)c3C)c2Cl)cnc1CN(C)[C@H]1CC[C@H](C(=O)O)CC1 [Example 41]	90.6 nM	79%
COc1nc(-c2cccc(-c3cccc(Nc4nc(C(F)F)nc5cc(CN6CC[C@@H](OC(F)F)C6)cnc45)c3C)c2Cl)cnc1CN(C)[C@H]1CC[C@H](C(=O)O)CC1 [Example 42, (1r,4r)-4-(((5-(2-chloro-3′-((7-(((R)-3-(difluoromethoxy)pyrrolidin-1-yl)methyl)-2-(difluoromethyl)pyrido[3,2-d]pyrimidin-4-yl)amino)-2′-methyl-[1,1′-biphenyl]-3-yl)-3-methoxypyrazin-2-yl)methyl)(methyl)amino)cyclohexane-1-carboxylic acid]	90.9 nM	74%
COc1nc(-c2cccc(-c3cccc(Nc4nc(C(F)F)nc5cc(CN6CC[C@H]([C@@H](C)O)C6)cnc45)c3C)c2Cl)cnc1CN(C)[C@H]1CC[C@H](C(=O)O)CC1 [Example 44, (1r,4r)-4-(((5-(2-chloro-3′-((2-(difluoromethyl)-7-(((S)-3-((R)-1-hydroxyethyl)pyrrolidin-1-yl)methyl)pyrido[3,2-d]pyrimidin-4-yl)amino)-2′-methyl-[1,1′-biphenyl]-3-yl)-3-methoxypyrazin-2-yl)methyl)(methyl)amino)cyclohexane-1-carboxylic acid]	84.5 nM	69%
COc1nc(-c2cccc(-c3cccc(Nc4nc(C(F)F)nc5cc(CN6CC[C@H]([C@H](C)O)C6)cnc45)c3C)c2Cl)cnc1CN(C)[C@H]1CC[C@H](C(=O)O)CC1 [Example 45, (1r,4r)-4-(((5-(2-chloro-3′-((2-(difluoromethyl)-7-(((S)-3-((S)-1-hydroxyethyl)pyrrolidin-1-yl)methyl)pyrido[3,2-d]pyrimidin-4-yl)amino)-2′-methyl-[1,1′-biphenyl]-3-yl)-3-methoxypyrazin-2-yl)methyl)(methyl)amino)cyclohexane-1-carboxylic acid]	94.7 nM	87.3%
COc1nc(-c2cccc(-c3cccc(Nc4nc(C(F)F)nc5cc(CN6CC[C@](C)(O)C6)cnc45)c3C)c2Cl)cnc1CN(C)[C@H]1CC[C@H](C(=O)O)CC1 [Example 46, (1r,4r)-4-(((5-(2-chloro-3′-((2-(difluoromethyl)-7-(((S)-3-hydroxy-3-methylpyrrolidin-1-yl)methyl)pyrido[3,2-d]pyrimidin-4-yl)amino)-2′-methyl-[1,1′-biphenyl]-3-yl)-3-methoxypyrazin-2-yl)methyl)(methyl)amino)cyclohexane-1-carboxylic acid]	60.7 nM	86.7%
COc1nc(-c2cccc(-c3cccc(Nc4nc(C(F)F)nc5cc(CN6CC[C@H](O)C6)cnc45)c3C)c2Cl)cnc1CN1CC[C@H](O)C1 [Example 50, (S)-1-((5-(2-chloro-3′-((2-(difluoromethyl)-7-(((S)-3-hydroxypyrrolidin-1-yl)methyl)pyrido[3,2-d]pyrimidin-4-yl)amino)-2′-methyl-[1,1′-biphenyl]-3-yl)-3-methoxypyrazin-2-yl)methyl)pyrrolidin-3-ol]	99.1 nM	96%
COc1nc(-c2cccc(-c3cccc(Nc4nc(C(F)F)nc5cc(CN6CC[C@H](O)C6)cnc45)c3C)c2Cl)cnc1CN[C@@H]1CCOC[C@@H]1O [Example 51, (S)-1-((4-((2′-chloro-3′-(5-((((3R,4R)-3-hydroxytetrahydro-2H-pyran-4-yl)amino)methyl)-6-methoxypyrazin-2-yl)-2-methyl-[1,1′-biphenyl]-3-yl)amino)-2-(difluoromethyl)pyrido[3,2-d]pyrimidin-7-yl)methyl)pyrrolidin-3-ol]	99.1 nM	96%
COc1nc(-c2cccc(-c3cccc(Nc4nc(C(F)F)nc5cc(CN6CC[C@@H](O)C6)cnc45)c3C)c2Cl)cnc1CN(C)[C@H]1CC[C@H](C(=O)O)C1 [Example 52, (1S,3S)-3-(((5-(2-chloro-3′-((2-(difluoromethyl)-7-(((R)-3-hydroxypyrrolidin-1-yl)methyl)pyrido[3,2-d]pyrimidin-4-yl)amino)-2′-methyl-[1,1′-biphenyl]-3-yl)-3-methoxypyrazin-2-yl)methyl)(methyl)amino)cyclopentane-1-carboxylic acid]	75.8 nM	74.3%
